Measurements published in US12606533B2, “3-phenylpropylamine derivative” (DAIICHI SANKYO COMPANY, LIMITED, priority 2023, dated 2026).

Tests used:
[1] = target: T1, SF-1 (Homo sapiens, UniProt Q13285); experiment: SF1 degradation induction in NCI-H295R SF-1-HiBiT cells (HiBiT DC50); type: cell-based; settings: 24 hr, concentration that induces 50% degradation of SF-1
T1 construct: NCI-H295R SF-1-HiBiT cells with HiBiT tag knocked in at the endogenous SF1 locus; host or cells: NCI-H295R SF-1-HiBiT (knock-in at endogenous locus)
Method in brief: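 NCI-H295R cells carrying HiBiT-tagged SF-1, plated and grown 24 hr, then exposed to serially diluted compounds for 24 hr at 37° C. Remaining SF-1 read by lytic HiBiT luminescence; degradation rate from treated vs compound-free signal, DC50 as concentration giving 50% degradation.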

[2] = system: NCI-H295R cells; experiment: Proliferation inhibitory action on NCI-H295R (CellTiter-Glo, 7 days); type: cell-based, human; settings: Homo sapiens, NCI-H295R, 168 h
Method in brief: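 Compounds serially diluted in DMSO; cells seeded at 2×10^3 cells/well and cultured 7 days at 37° C, 5% CO2. CellTiter-Glo 2.0 luminescence read at day 0 and day 7; proliferation rate derived from compound-addition-day signal, untreated day-7 signal and treated day-7 signal.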

Compound	DC50 [1] [nM]	GI50 [2] [nM]
COc1ccc([C@]2(CCN(CC3CC=C(c4ccc(NC(=O)C5CC(Nc6ccc7c(c6)n(C)c(=O)n7C6CCC(=O)NC6=O)C5)c(F)c4)CC3)CC(C)(C)C(F)(F)F)CCOC(C)(C)C2)cc1 (stereo partly drawn) [BE5, 3-{[1-(2,6-Dioxopiperidin-3-yl)-3-methyl-2-oxo-2,3-dihydro-1H-benzimidazol-5-yl]amino}-N-(3-fluoro-4′-{[{2-[(4R)-4-(4-methoxyphenyl)-2,2-dimethyltetrahydro-2H-pyran-4-yl]ethyl}(3,3,3-trifluoro-2,2-dimethylpropyl)amino]methyl}-2′,3′,4′,5′-tetrahydro[biphenyl]-4-yl)cyclobutanecarboxamide]	2.6	124
COc1ccc([C@]2(CCN(Cc3ccc(C4=CC[C@H](CN5CCN(C(=O)c6ccc7c(c6)n(C)c(=O)n7C6CCC(=O)NC6=O)CC5)CC4)cc3)CC(C)(C)C(F)(F)F)CCOC(C)(C)C2)cc1 (stereo partly drawn) [BI2, 3-{5-[(4-{[(4R)-4′-{[{2-[(4R)-4-(4-Methoxyphenyl)-2,2-dimethyltetrahydro-2H-pyran-4-yl]ethyl)(3,3,3-trifluoro-2,2-dimethylpropyl)amino]methyl}-2,3,4,5-tetrahydro[biphenyl]-4-yl]methyl}piperazin-1-yl)carbonyl]-3-methyl-2-oxo-2,3-dihydro-1H-benzimidazol-1-yl}piperidine-2,6-dione]	11	79
COc1ccc([C@]2(CCN(Cc3ccc4c(cnn4C4CC5(CCN(CC(=O)Nc6ccc7c(c6)n(C)c(=O)n7C6CCC(=O)NC6=O)CC5)C4)c3)CC(C)(C)C(F)(F)F)CCOC(C)(C)C2)cc1 (stereo partly drawn) [BA6, N-[1-(2,6-Dioxopiperidin-3-yl)-3-methyl-2-oxo-2,3-dihydro-1H-benzimidazol-5-yl]-2-[2-(5-{[{2-[(4R)-4-(4-methoxyphenyl)-2,2-dimethyltetrahydro-2H-pyran-4-yl]ethyl)(3,3,3-trifluoro-2,2-dimethylpropyl)amino]methyl}-1H-indazol-1-yl)-7-azaspiro[3.5]nonan-7-yl]acetamide]	4.9	23
COc1ccc([C@]2(CCN(Cc3ccc(C4=CC[C@H](C(=O)N5CCC(Nc6cc7c(cc6F)n(C6CCC(=O)NC6=O)c(=O)n7C)CC5)CC4)cc3)CC(C)(C)C(F)(F)F)CCOC(C)(C)C2)cc1 (stereo partly drawn) [BT6, 3-{6-Fluoro-5-[(1-{[(4R)-4′-{[{2-[(4R)-4-(4-methoxyphenyl)-2,2-dimethyltetrahydro-2H-pyran-4-yl]ethyl}(3,3,3-trifluoro-2,2-dimethylpropyl)amino]methyl}-2,3,4,5-tetrahydro[biphenyl]-4-yl]carbonyl}piperidin-4-yl)amino]-3-methyl-2-oxo-2,3-dihydro-1H-benzimidazol-1-yl}piperidine-2,6-dione]	3.5	48
COc1ccc([C@]2(CCN(Cc3ccc(C4=CC[C@H](C(=O)N5C6COCC5CC(Nc5ccc7c8c5CCCn8c(=O)n7C5CCC(=O)NC5=O)C6)CC4)c(F)c3)CC(C)(C)C(F)(F)F)CCOC(C)(C)C2)cc1 (stereo partly drawn) [CC3, 3-[7-{[(7-Exo)-9-{[(4R)-2′-fluoro-4′-{[{2-[(4R)-4-(4-methoxyphenyl)-2,2-dimethyltetrahydro-2H-pyran-4-yl]ethyl)(3,3,3-trifluoro-2,2-dimethylpropyl)amino]methyl}-2,3,4,5-tetrahydro[biphenyl]-4-yl]carbonyl}-3-oxa-9-azabicyclo[3.3.1]nonan-7-yl]amino}-2-oxo-5,6-dihydro-4H-imidazo[4,5,1-ij]quinolin-1(2H)-yl]piperidine-2,6-dione]	4.9	36
COc1ccc([C@]2(CCN(Cc3ccc(C4=CCC(CN5CCN(C(=O)c6ccc7c(c6)n(C)c(=O)n7C6CCC(=O)NC6=O)CC5)CC4)cc3)CC3(C(F)(F)F)CCC3)CCOC(C)(C)C2)cc1 (stereo partly drawn) [AR7, 3-(5-{[4-({4′-[({2-[(4R)-4-(4-Methoxyphenyl)-2,2-dimethyltetrahydro-2H-pyran-4-yl]ethyl}{[1-(trifluoromethyl)cyclobutyl]methyl}amino)methyl]-2,3,4,5-tetrahydro[biphenyl]-4-yl}methyl)piperazin-1-yl]carbonyl}-3-methyl-2-oxo-2,3-dihydro-1H-benzimidazol-1-yl)piperidine-2,6-dione]	6.5	82
COc1ccc([C@]2(CCN(Cc3ccc(C4=CCC(CC(=O)NCCNc5ccc6c(c5)n(C)c(=O)n6C5CCC(=O)NC5=O)CC4)cc3)CC(C)(C)C(F)(F)F)CCOC(C)(C)C2)cc1 (stereo partly drawn) [Example Y6, N-(2-{[1-(2,6-Dioxopiperidin-3-yl)-3-methyl-2-oxo-2,3-dihydro-1H-benzimidazol-5-yl]amino}ethyl)-2-(4′-{[{2-[(4R)-4-(4-methoxyphenyl)-2,2-dimethyltetrahydro-2H-pyran-4-yl]ethyl}(3,3,3-trifluoro-2,2-dimethylpropyl)amino]methyl}-2,3,4,5-tetrahydro[biphenyl]-4-yl)acetamide]	12	199
COc1ccc([C@]2(CCN(Cc3ccc(C4=CC[C@H](CN5CCN(C(=O)c6ccc7c8c6CCCn8c(=O)n7[C@H]6CCC(=O)NC6=O)CC5)CC4)cc3)CC(C)(C)C(F)(F)F)CCOC(C)(C)C2)cc1 [BF6, (3S)-3-{7-[(4-{[(4R)-4′-{[{2-[(4R)-4-(4-Methoxyphenyl)-2,2-dimethyltetrahydro-2H-pyran-4-yl]ethyl}(3,3,3-trifluoro-2,2-dimethylpropyl)amino]methyl}-2,3,4,5-tetrahydro[biphenyl]-4-yl]methyl}piperazin-1-yl)carbonyl]-2-oxo-5,6-dihydro-4H-imidazo[4,5,1-ij}quinolin-1(2H)-yl}piperidine-2,6-dione]	10	75

Further lines, results first:

DC50 [1] [nM]	GI50 [2] [nM]	Compound
26	73	COc1ccc(C2(CCN(Cc3ccc(OC4CCN(CC(=O)Nc5cccc6c5n(C)c(=O)n6C5CCC(=O)NC5=O)CC4)cc3)CC(C)(C)C(F)(F)F)CCOCC2)cc1 (stereo not shown) [Example AC6, N-[1-(2,6-Dioxopiperidin-3-yl)-3-methyl-2-oxo-2,3-dihydro-1H-benzimidazol-4-yl]-2-[4-(4-{[{2-[4-(4-methoxyphenyl)tetrahydro-2H-pyran-4-yl]ethyl}(3,3,3-trifluoro-2,2-dimethylpropyl)amino]methyl}phenoxy)piperidin-1-yl]acetamide]
29	165	COc1ccc(C2(CCN(Cc3ccc(OC4CCN(CC(=O)Nc5cccc6c5n(C)c(=O)n6C5CCC(=O)NC5=O)CC4)cc3)CC(C)(C)C(F)(F)F)CCC(F)(F)CC2)cc1 (stereo not shown) [Example AB6, 2-[4-(4-{[{2-[4,4-Difluoro-1-(4-methoxyphenyl)cyclohexyl]ethyl}(3,3,3-trifluoro-2,2-dimethylpropyl)amino]methyl}phenoxy)piperidin-1-yl]-N-[1-(2,6-dioxopiperidin-3-yl)-3-methyl-2-oxo-2,3-dihydro-1H-benzimidazol-4-yl]acetamide]
7.4	61	COc1ccc([C@]2(CCN(Cc3ccc(C4=CCC(C(=O)N5CCN(Cc6ccc7c(c6)n(C)c(=O)n7C6CCC(=O)NC6=O)CC5)CC4)c(F)c3F)CC(C)(C)C(F)(F)F)CCOC(C)(C)C2)cc1 (stereo partly drawn) [AV2, 3-[5-({4-[(2′,3′-Difluoro-4′-{[{2-[(4R)-4-(4-methoxyphenyl)-2,2-dimethyltetrahydro-2H-pyran-4-yl]ethyl}(3,3,3-trifluoro-2,2-dimethylpropyl)amino]methyl}-2,3,4,5-tetrahydro[biphenyl]-4-yl)carbonyl]piperazin-1-yl}methyl)-3-methyl-2-oxo-2,3-dihydro-1H-benzimidazol-1-yl]piperidine-2,6-dione]
3.1	43	COc1ccc([C@]2(CCN(Cc3ccc(C4=CC[C@@H](C(=O)N5CCC(Nc6ccc7c8c6CCCn8c(=O)n7C6CCC(=O)NC6=O)CC5)CC4)c(F)c3)CC(C)(C)C(F)(F)F)CCOC(C)(C)C2)cc1 (stereo partly drawn) [BL4, 3-{7-[(1-{[(4S)-2′-Fluoro-4′-{[{2-[(4R)-4-(4-methoxyphenyl)-2,2-dimethyltetrahydro-2H-pyran-4-yl]ethyl)(3,3,3-trifluoro-2,2-dimethylpropyl)amino]methyl}-2,3,4,5-tetrahydro[biphenyl]-4-yl]carbonyl}piperidin-4-yl)amino]-2-oxo-5,6-dihydro-4H-imidazo[4,5,1-ij]quinolin-1(2H)-yl}piperidine-2,6-dione]
7.3	106	Cn1c(=O)n(C2CCC(=O)NC2=O)c2ccc(C(=O)N3CCN(CC4CC=C(c5ccc(CN(CC[C@@]6(c7ccc(OC(F)F)cc7)CCOC(C)(C)C6)CC(C)(C)C(F)(F)F)cc5)CC4)CC3)cc21 (stereo partly drawn) [AM10, 3-[5-({4-[(4′-{[(2-{(4R)-4-[4-(Difluoromethoxy)phenyl]-2,2-dimethyltetrahydro-2H-pyran-4-yl}ethyl) (3,3,3-trifluoro-2,2-dimethylpropyl)amino]methyl}-2,3,4,5-tetrahydro[biphenyl]-4-yl)methyl]piperazin-1-yl}carbonyl)-3-methyl-2-oxo-2,3-dihydro-1H-benzimidazol-1-yl]piperidine-2,6-dione]
6.9	121	COc1ccc([C@]2(CCN(Cc3ccc(OC4CC5(CCN(CC(=O)Nc6ccc7c(c6)CN(C6CCC(=O)NC6=O)C7=O)CC5)C4)cc3)CC(C)(C)C(F)(F)F)CCOC(C)(C)C2)cc1 (stereo partly drawn) [Example AF1, N-[2-(2,6-Dioxopiperidin-3-yl)-1-oxo-2,3-dihydro-1H-isoindol-5-yl]-2-[2-(4-{[{2-[(4R)-4-(4-methoxyphenyl)-2,2-dimethyltetrahydro-2H-pyran-4-yl]ethyl}(3,3,3-trifluoro-2,2-dimethylpropyl)amino]methyl}phenoxy)-7-azaspiro[3.5]nonan-7-yl]acetamide]
